Measurements from patent US20170239330A1, “FORMULATIONS FOR HISTATIN THERAPEUTICS” (RAPID PATHOGEN SCREENING, INC., priority 2014, published 2017).

Legend:
[1] = Stability of ocular histatin formulation determined by mass spectroscopy; type: physicochemical; settings: 100 μg/mL in gel tears lubricating eye drop with 0.25% PEG in aqueous buffered borate salt solution
Method: In some embodiments, the ocular histatin formulation is stable both at room temperature (25° C.) and at 45° C. for at least 90 days.

[2] = system: cultured ocular epithelial cells; settings: in vitro; cited from earlier work

## cyclo(DNLPETGGDSHEKRHHGYRRKFHEKHHSHREFPFYGDYGSNYLY) [cyclized histatin 1]
[1]; 25° C.
  Time formulation found stable, by mass spectroscopy: at least 505 days
[1]; 45° C.
  Time formulation found stable, by mass spectroscopy: at least 90 days

## Benzalkonium chloride
[2]
  Cytotoxicity to cultured ocular epithelial cells: significant cytotoxicity
